Measured values: PubChem BioAssay (NCI)
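Compound exposure: 48 hours, 5 concentrations, 96-well plates. GI50: concentration for 50% inhibition of growth. At the TGI there is no net growth.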

Tests used:
Assay in all cases: NCI tumour cell line growth inhibition, 48 h; in the data active = GI50 below about 0.43 µM; inactive = the rest
NCI-H226 lung = system: NCI-H226 lung
NCI-H23 lung = system: NCI-H23 lung
NCI-H460 lung = system: NCI-H460 lung
NCI-H522 lung = system: NCI-H522 lung
NCI/ADR-RES ovarian = system: NCI/ADR-RES ovarian
OVCAR-3 ovarian = system: OVCAR-3 ovarian
OVCAR-4 ovarian = system: OVCAR-4 ovarian
OVCAR-5 ovarian = system: OVCAR-5 ovarian
OVCAR-8 ovarian = system: OVCAR-8 ovarian
PC-3 prostate = system: PC-3 prostate
RPMI-8226 leukemia = system: RPMI-8226 leukemia
SF-268 CNS = system: SF-268 CNS
SF-295 CNS = system: SF-295 CNS
SF-539 CNS = system: SF-539 CNS
SK-MEL-2 melanoma = system: SK-MEL-2 melanoma
SK-MEL-28 melanoma = system: SK-MEL-28 melanoma
SK-MEL-5 melanoma = system: SK-MEL-5 melanoma
SK-OV-3 ovarian = system: SK-OV-3 ovarian
SN12C renal = system: SN12C renal
SNB-19 CNS = system: SNB-19 CNS
SNB-75 CNS = system: SNB-75 CNS
SR leukemia = system: SR leukemia
SW-620 colon = system: SW-620 colon
T-47D breast = system: T-47D breast
TK-10 renal = system: TK-10 renal
U251 CNS = system: U251 CNS
UACC-257 melanoma = system: UACC-257 melanoma
UACC-62 melanoma = system: UACC-62 melanoma
UO-31 renal = system: UO-31 renal

O=C(CCCCCCNC(=O)C(O)(O)C(F)(F)F)Nc1ncc(-c2ccccc2)s1
22 µM: TGI (SNB-19 CNS)
10.8 µM: TGI (U251 CNS)
13.6 µM: TGI (OVCAR-5 ovarian)
17.8 µM: TGI (SF-268 CNS)
14.6 µM: TGI (SK-MEL-2 melanoma)
> 23.5 µM: TGI (NCI-H226 lung) | TGI (NCI-H23 lung) | TGI (NCI-H460 lung) | TGI (OVCAR-4 ovarian) | TGI (OVCAR-8 ovarian) | TGI (PC-3 prostate) | TGI (RPMI-8226 leukemia) | TGI (SF-539 CNS) | TGI (SK-MEL-28 melanoma) | TGI (SN12C renal) | TGI (SNB-75 CNS) | TGI (SR leukemia) | TGI (T-47D breast) | TGI (TK-10 renal) | TGI (UACC-257 melanoma)
8.88 µM: TGI (SF-295 CNS)
inactive: GI50 (NCI-H23 lung) 4.56 µM | GI50 (NCI-H460 lung) 2.57 µM | GI50 (NCI-H522 lung) 3.67 µM | GI50 (NCI/ADR-RES ovarian) 4.27 µM | GI50 (OVCAR-3 ovarian) 2.38 µM | GI50 (OVCAR-4 ovarian) 11.1 µM | GI50 (OVCAR-5 ovarian) 2.07 µM | GI50 (OVCAR-8 ovarian) 2.9 µM | GI50 (PC-3 prostate) 3.39 µM | GI50 (RPMI-8226 leukemia) 1.96 µM | GI50 (SF-268 CNS) 5.58 µM | GI50 (SF-295 CNS) 3.49 µM | GI50 (SF-539 CNS) 5.63 µM | GI50 (SK-MEL-2 melanoma) 3.64 µM | GI50 (SK-MEL-28 melanoma) 3.29 µM | GI50 (SK-MEL-5 melanoma) 3.46 µM | GI50 (SK-OV-3 ovarian) 3.51 µM | GI50 (SN12C renal) 3.75 µM | GI50 (SNB-19 CNS) 4.81 µM | GI50 (SNB-75 CNS) 1.33 µM | GI50 (SR leukemia) 1.01 µM | GI50 (SW-620 colon) 2.4 µM | GI50 (T-47D breast) 3.73 µM | GI50 (TK-10 renal) 0.679 µM | GI50 (U251 CNS) 3.07 µM | GI50 (UACC-257 melanoma) 4.91 µM | GI50 (UACC-62 melanoma) 1.65 µM | GI50 (UO-31 renal) 3.72 µM
9.91 µM: TGI (SW-620 colon)
5.61 µM: TGI (UACC-62 melanoma)
15.6 µM: TGI (NCI-H522 lung)
17.1 µM: TGI (NCI/ADR-RES ovarian)
14 µM: TGI (UO-31 renal)
5.97 µM: TGI (OVCAR-3 ovarian)
17.6 µM: TGI (SK-OV-3 ovarian)
7.22 µM: TGI (SK-MEL-5 melanoma)
